Laboratory results: PubChem BioAssay AID248 (DTP/NCI, 2004)
Toxic doses and inconclusive results are not listed. Cut-off read from the data, not from the text of the source: active = T/C of 150% or more; inactive = T/C below 125%.

Test system: L1210 leukemia ip in BDF1 mice, survival T/C
Assay: NCI In Vivo Anticancer Drug Screen. Data for tumor model L1210 Leukemia (intraperitoneal) in B6D2F1 (BDF1) mice
Conditions: endpoint: mean survival time, higher = longer survival
Method in brief: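 In this screen, tumor-bearing mice given compound are compared to those given vehicle, and their survival values are reported as a treated-to-control quotient.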

[1] = dose: 100.0 mg/kg/injection, schedule: Q04DX003 (ip), vehicle: Klucel (hydroxypropylcellulose) (HPC)
[2] = dose: 200.0 mg/kg/injection, schedule: Q04DX003 (ip), vehicle: Klucel (hydroxypropylcellulose) (HPC)
[3] = dose: 400.0 mg/kg/injection, schedule: Q04DX003 (ip), vehicle: Klucel (hydroxypropylcellulose) (HPC)

Measured: T/C

CCc1nc2nnnn2c(CC)c1-c1ccccc1O
inactive: dose: 100.0 mg/kg/injection, schedule: Q04DX002 (ip), vehicle: saline with Tween-80 98 % of control | dose: 200.0 mg/kg/injection, schedule: Q04DX002 (ip), vehicle: saline with Tween-80 104 % of control | dose: 400.0 mg/kg/injection, schedule: Q04DX002 (ip), vehicle: saline with Tween-80 88 % of control

CC(=O)C(C(C)=O)C(=O)c1ccc2ccccc2c1
inactive: dose: 222.0 mg/kg/injection, schedule: Q01DX Z (ip), vehicle: methylcellulose (MC) 107 % of control | dose: 333.0 mg/kg/injection, schedule: Q01DX Z (ip), vehicle: methylcellulose (MC) 94 % of control | dose: 500.0 mg/kg/injection, schedule: Q01DX Z (ip), vehicle: methylcellulose (MC) 96 % of control

C1CC2CC2CCC2CC12 (centres undefined)
inactive: dose: 100.0 mg/kg/injection, schedule: Q01DX009 (ip), vehicle: Klucel (hydroxypropylcellulose) (HPC) 104 % of control | [1] 101 % of control | dose: 200.0 mg/kg/injection, schedule: Q01DX009 (ip), vehicle: Klucel (hydroxypropylcellulose) (HPC) 95 % of control | [2] 95 % of control | dose: 400.0 mg/kg/injection, schedule: Q01DX009 (ip), vehicle: Klucel (hydroxypropylcellulose) (HPC) 102 % of control | [3] 101 % of control

Oc1c(Cl)cc(Cl)c(Cl)c1CN1CCOCC1
inactive: dose: 55.0 mg/kg/injection, schedule: Q01DX Z (ip), vehicle: methylcellulose (MC) 98 % of control | dose: 83.0 mg/kg/injection, schedule: Q01DX Z (ip), vehicle: methylcellulose (MC) 116 % of control | dose: 125.0 mg/kg/injection, schedule: Q01DX Z (ip), vehicle: methylcellulose (MC) 104 % of control

CN(Cc1cnc2nc(N)c(Br)c(N)c2n1)c1ccc(C(=O)NC(CCC(=O)O)C(=O)O)cc1 (centres undefined)
inactive: dose: 100.0 mg/kg/injection, schedule: Q04DX002 (ip), vehicle: sodium bicarbonate 96 % of control | dose: 200.0 mg/kg/injection, schedule: Q04DX002 (ip), vehicle: sodium bicarbonate 96 % of control

Cc1cccn2c(=O)c(/C=N\NC(N)=S)c(Cl)nc12
inactive: dose: 100.0 mg/kg/injection, schedule: Q01DX001 (ip), vehicle: carboxymethylcellulose (CMC) 105 % of control | dose: 200.0 mg/kg/injection, schedule: Q01DX001 (ip), vehicle: carboxymethylcellulose (CMC) 96 % of control | dose: 400.0 mg/kg/injection, schedule: Q01DX001 (ip), vehicle: carboxymethylcellulose (CMC) 94 % of control

CCCCCCCCCCCCN(C)S(=O)(=O)c1ccc(Cl)c(N)c1
inactive: dose: 100.0 mg/kg/injection, schedule: Q01DX009 (ip), vehicle: saline with Tween-80 95 % of control | [1] 91 % of control | dose: 200.0 mg/kg/injection, schedule: Q01DX009 (ip), vehicle: saline with Tween-80 89 % of control | [2] 108 % of control | dose: 400.0 mg/kg/injection, schedule: Q01DX009 (ip), vehicle: saline with Tween-80 93 % of control | [3] 89 % of control

CC(=O)CCC1(c2cc[n+](C)cc2)CCC(C)(O)C(C(C)=O)C1 (centres undefined)
inactive: dose: 100.0 mg/kg/injection, schedule: Q04DX003 (ip), vehicle: saline 93 % of control | dose: 200.0 mg/kg/injection, schedule: Q04DX003 (ip), vehicle: saline 94 % of control | dose: 400.0 mg/kg/injection, schedule: Q04DX003 (ip), vehicle: saline 100 % of control

CCOC(=O)c1c(Cl)nc2ccccc2c1Cl
inactive: dose: 100.0 mg/kg/injection, schedule: Q01DX001 (ip), vehicle: saline 92 % of control | dose: 200.0 mg/kg/injection, schedule: Q01DX001 (ip), vehicle: saline 97 % of control | dose: 400.0 mg/kg/injection, schedule: Q01DX001 (ip), vehicle: saline 94 % of control

Cc1ccc(C2NC(=S)N3C(c4ccc(C)cc4)NC(=S)N23)cc1 (centres undefined)
inactive: dose: 100.0 mg/kg/injection, schedule: Q01DX009 (ip), vehicle: gum acacia 105 % of control | dose: 100.0 mg/kg/injection, schedule: Q04DX003 (ip), vehicle: gum acacia 95 % of control | dose: 200.0 mg/kg/injection, schedule: Q01DX009 (ip), vehicle: gum acacia 100 % of control | dose: 200.0 mg/kg/injection, schedule: Q04DX003 (ip), vehicle: gum acacia 90 % of control | dose: 400.0 mg/kg/injection, schedule: Q01DX009 (ip), vehicle: gum acacia 91 % of control | dose: 400.0 mg/kg/injection, schedule: Q04DX003 (ip), vehicle: gum acacia 95 % of control

c1ccc(-c2nc3ccccc3nc2-c2ccccc2)cc1
inactive: [1] 96 % of control | dose: 100.0 mg/kg/injection, schedule: Q04DX003 (ip), vehicle: saline with Tween-80 100 % of control | [2] 86 % of control | dose: 200.0 mg/kg/injection, schedule: Q04DX003 (ip), vehicle: saline with Tween-80 100 % of control | [3] 90 % of control | dose: 400.0 mg/kg/injection, schedule: Q04DX003 (ip), vehicle: saline with Tween-80 100 % of control
